The text below walks through data of patent publication US20030065039A1, “Biologically active 1,3-bis-aromatic-prop-2-en-1-ones, 1,3-bis-aromatic-propan-1-ones, and 1,3-bis-aromatic-prop-2-yn-1-ones” (Statens Serum Institute, priority 1997, published 2003).

For data set [1], the system named is Leishmania promastigotes. The data set can be described thus: Leishmania promastigotes Assay. The following applies: Leishmania; promastigotes, 3H-thymidine uptake; read-out: Leishmania IC50 ± SD. In kind it is cell-based. The procedure, abridged: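 L. major (WHO Iran vaccine strain) and L. donovani MHOM/KE/85/NLB 274 promastigotes (3×10^6/ml, day 3 and 6 cultures) exposed to compound 2 h at 26 °C, then 3H-thymidine 18 h; incorporation counted by scintillation. Microscopic counts and flagellar motility also assessed.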

The subject of data set [2] is Plasmodium falciparum. The data set can be described thus: Plasmodium falciparum Assay. In kind it is cell-based. The following applies: Plasmodium falciparum; 3-H-hypoxanthine incorporation, 48 hours; read-out: Plasmodium IC50 ± SD. The procedure, abridged:
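Parasitized erythrocytes (~1% parasitemia, 5×10^8/ml) cultured 48 h in RPMI with test compound, with 3H-hypoxanthine added for the last 24 h. Growth inhibition read as 3H-hypoxanthine incorporation into parasite DNA by liquid scintillation; uninfected and untreated infected cultures run in parallel.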

Data set [3] has as its system human lymphocytes. The data set can be described thus: Lymphocyte Proliferation Assay. Type of data set: cell-based. Particulars: Lymphocyte; PHA provoked proliferation of human lymphocytes; read-out: Lymphocytes IC50 ± SD. Summed up:
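Ficoll-isolated human blood mononuclear cells (0.63×10^5/ml) in RPMI 1640 with 5% FCS were cultured in triplicate with test compound and PHA or PPD for 3 or 7 days. Proliferation measured by ^3H-thymidine incorporation over the final 24 h; triplicate median recorded.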

The subject of data set [4] is Helicobacter pylori. The data set can be described thus: Helicobacter species Assay (agar plate, MIC). Type of data set: cell-based. The protocol:
20 strains of Helicobacter pylori were used in an agar plate assay. The compounds were incorporated in the agar plates at different concentrations as described in the examples and were then inoculated with different strains of Helicobacter pylori followed by incubation in a microaerophilic atmosphere at 37° C. for 72 hours. The number of colony-forming units (CFU) were counted after the incubation period. The MIC values were determined as the minimal concentration required to inhibit growth of the bacteria.
(§1) Stock solutions were made at a concentration of 1 mg/ml by dissolving 1 mg of each compound in 100 μl DMSO (dimethylsulfoxide) followed by addition of 900 μl of heat-inactivated fetal claf serum (HFCS). These stock solutions were diluted with HFCS to make solutions having the following concentrations: 320 μg/ml, 160 μg/ml, 80 μg/ml, 40 μg/ml and 20 μg/ml. Dilution rows were made with 3 ml aliquots in vials containing the compounds in the following final test concentrations: 16 μg/ml, 8 μg/ml, 4 μg/ml, 2 μg/ml and 1 μg/ml. As control was used DMSO-HFCS containing an amount of DMSO equal to the amount of test compound in the solution with 320 μg/ml compound.
Bacteria: 20 strains of Helicobacter pylori were used in an agar plate assay. The compounds were incorporated in the agar plates at different concentrations and then they were inoculated with different strains of Helicobacter pylori followed by incubation at microaerophilic atmosphere at 37° C. in 72 hours. The number of colony-forming units (CFU) were counted after the incubation period. The MIC values were determined as the minimal concentration required to inhibit growth of the bacteria.
as §1, with “concentrations: 2560 μg/ml, 1280 μg/ml, 640 μg/ml,” for “concentrations:”, “160 µg/ml and” for “160 μg/ml,”, “80” for “80 μg/ml, 40 μg/ml and 20”, “concentrations: 128 μg/ml, 64 μg/ml, 32 μg/ml, 12” for “concentrations: 16”, “8” for “8 μg/ml, 4 μg/ml, 2”, “and 4” for “and 1”
Bacteria: 20 strains of Helicobacter pylori were used in an agar plate assay. The same method as described above under Experiment A was employed and MIC values were determined.

Values after ≈ are worked out from the molar mass of the structure shown.

The IC50 is the point on the concentration scale where inhibition reaches its midpoint. In general, melting point refers to the temperature of the solid-liquid transition. For orientation: MIC means the smallest concentration in the dilution series that meets the test's criterion for growth inhibition.

As for `CCCCOc1ccccc1/C=C/C(=O)c1ccc(OC)c(OC)c1OC` [2-OC4H9-2′,3′,4′-OCH3, 2-butoxy-2′,3′,4′-trimethoxychalcone], the melting point was in the range of 129.4 to 130.2 °C. Besides, the half-inhibitory concentration (IC50) in data set [1] is 26 ± 1 µM. The half-maximal inhibitory concentration (IC50) in data set [2] amounted to 7.8 µM. Further, the IC50 in data set [3] was determined as 52 ± 3 µM.

With `COc1ccc(C(=O)/C=C/c2ccccc2O)c(OC)c1OC` [2-OH-2′,3′,4′,-OCH3, 2-hydroxy-2′,3′,4′-trimethoxychalcone], the melting point is 122.6 to 123 °C. In data set [1], the half-maximal inhibitory concentration (IC50) amounted to 9.3 ± 1 µM. Further, the concentration for half-maximal inhibition (IC50) in data set [2] was determined as 10 µM. Besides, in data set [3], the IC50 turned out to be 9 ± 0.7 µM.

Compound `COc1cc(/C=C/C(=O)c2ccccc2N(C)C)cc(OC)c1` [2′-N(CH3)2-3,5-OCH3, 3,5-dimethoxy-2′-dimethylaminochalcone] displayed a melting point of 159.8 to 160.5 °C. Besides, the concentration for half-maximal inhibition (IC50) in data set [1] stood at 7.3 ± 1 µM. For the same compound, in data set [2], the half-inhibitory concentration (IC50) stood at 13 µM. Besides, the IC50 in data set [3] is 5.7 ± 0.3 µM.

Take `COc1cc(/C=C/C(=O)c2ccccc2[N+](=O)[O-])cc(OC)c1` [2′-NO2-3,5-OCH3, 3,5-dimethoxy-2′-nitrochalcone]: the melting point lay within 98.4 to 98.9 °C. The IC50 in data set [1] was determined as 3.4 ± 0.5 µM. Moreover, the IC50 in data set [2] is 7.4 µM. Moreover, the concentration for half-maximal inhibition (IC50) in data set [3] came to 3.7 ± 0.2 µM.

`CCCCOc1ccccc1C(=O)/C=C/c1cc(OC)cc(OC)c1` [2′-OC4H9-3,5-OCH3, 3,5-dimethoxy-2′-butoxychalcone]: the melting point is 69.5 to 70.1 °C. Moreover, the IC50 in data set [1] worked out at 7.2 ± 1.2 µM. In addition, the IC50 in data set [2] is 25 µM. Further, the half-maximal inhibitory concentration (IC50) in data set [3] turned out to be 13 ± 1 µM.

As for `COc1cc(/C=C/C(=O)c2ccccc2O)cc(OC)c1` [2′-OH-3,5-OCH3, 3,5-dimethoxy-2′-hydroxychalcone], the melting point lay in the range of 110.2 to 110.9 °C. Besides, the concentration for half-maximal inhibition (IC50) in data set [1] came out at 3.8 ± 0.9 µM. Also, in data set [2], the 50% inhibitory concentration (IC50) came to 20 µM. Further, the IC50 in data set [3] is 8.1 ± 0.8 µM.

In turn, `COc1ccc(C(=O)/C=C/c2cccc(N(C)C)c2)c(OC)c1OC` [3-N(CH3)2-2′,3′,4′-OCH3, 3-dimethylamino-2′,3′,4′-trimethoxychalcone] registered a melting point of 87.2 to 87.9 °C. Also, the IC50 in data set [1] was 20 ± 3 µM. In addition, the IC50 in data set [2] is 12 µM. Besides, in data set [3], the concentration for half-maximal inhibition (IC50) worked out at 26 ± 1 µM.

Compound `COc1ccc(C(=O)/C=C/c2cccc([N+](=O)[O-])c2)c(OC)c1OC` [3-NO2-2′,3′,4′-OCH3, 3-nitro-2′,3′,4′-trimethoxychalcone] showed a melting point of 130.1 to 130.7 °C. The half-inhibitory concentration (IC50) in data set [1] was 17 ± 2 µM. Moreover, in data set [2], the half-inhibitory concentration (IC50) amounted to 5.5 µM. In addition, the half-inhibitory concentration (IC50) in data set [3] is 36 ± 2 µM.

For the compound `COc1cc(/C=C/C(=O)c2cccc(N(C)C)c2)cc(OC)c1` [3′-N(CH3)2-3,5-OCH3, 3,5-dimethoxy-3′-dimethylaminochalcone], the melting point was 81.8 to 82.6 °C. For the same compound, the half-maximal inhibitory concentration (IC50) in data set [1] is 5.8 ± 0.7 µM. Also, the IC50 in data set [2] stood at 29 µM. The IC50 in data set [3] turned out to be 5 ± 0.2 µM.

The compound `COc1ccc(/C=C/C(=O)c2cccc([N+](=O)[O-])c2)c(OC)c1` [3′-NO2-2,4-OCH3, 2,4-dimethoxy-3′-nitrochalcone] had a melting point of 88.1 to 88.7 °C. In data set [1], the half-maximal inhibitory concentration (IC50) is 8.6 µM. Moreover, the IC50 in data set [3] worked out at 18 ± 2 µM.

With `COc1cc(/C=C/C(=O)c2cccc(O)c2)cc(OC)c1` [3′-OH-3,5-OCH3, 3,5-dimethoxy-3′-hydroxychalcone], the melting point lay within 126.2 to 126.8 °C. The IC50 in data set [1] worked out at 3.7 ± 0.6 µM. In addition, the concentration for half-maximal inhibition (IC50) in data set [2] was 28 µM. The IC50 in data set [3] was determined as 3.2 ± 0.4 µM.

For `COc1ccc(C(=O)/C=C/c2ccc(C#N)cc2)c(OC)c1OC` [4-CN-2′,3′,4′-OCH3, 4-cyano-2′,3′,4′-trimethoxychalcone], the melting point lay within 131.7 to 133 °C. The 50% inhibitory concentration (IC50) in data set [1] came out at 8.6 ± 0.9 µM. Also, in data set [2], the IC50 turned out to be 7.6 µM. Besides, the IC50 in data set [3] turned out to be 5.4 ± 0.3 µM.

In the case of `O=C(/C=C/c1ccc(Oc2ccccc2)cc1)c1ccc(F)cc1` [4′-F-4-OC6H5, 4-phenoxy-4′-fluorochalcone], the melting point fell in the range of 115.7 to 116 °C. Also, the IC50 in data set [1] came out at 42 ± 6 µM. The IC50 in data set [3] came out at 33 ± 2 µM.

Consider `O=C(/C=C/c1ccc(Oc2ccccc2)cc1)c1ccc(C2CCCCC2)cc1` [4′-cC6H11-4-OC6H5, 4-phenoxy-4′-cyclohexylchalcone], for which the melting point is 160.9 to 161.1 °C. For the same compound, the 50% inhibitory concentration (IC50) in data set [2] was found to be 200 µM.

As for `COc1ccc(C(=O)/C=C/c2ccccc2[N+](=O)[O-])c(OC)c1OC` [PH98, 2-nitro-2′,3′,4′-trimethoxychalcone], the melting point is 107.1 to 108 °C. In addition, the 50% inhibitory concentration (IC50) in data set [1] was 5.9 ± 0.4 µM. In data set [4] (Helicobacter pylori, 20 strains of H. pylori, agar plate, 72 hours, read-out: MIC), the minimum inhibitory concentration (MIC) amounted to 16 µg/mL (≈ 46.6 µM). Moreover, the “strains of Helicobacter pylori inhibited” value in data set [4] (at a concentration of 16 μg/ml, 20 strains) was 4 out of 20. Also, the “No. strains inhibited/No. strains tested” value in data set [4] (at the MIC of the same line) is reported as 6/20. Besides, the IC50 in data set [2] turned out to be 9.3 µM. The concentration for half-maximal inhibition (IC50) in data set [3] was determined as 7 ± 0.6 µM.
